Experimental data taken from patent US20120277209A1, “PYRAZINE COMPOUNDS AS PHOSPHODIESTERASE 10 INHIBITORS” (Amgen Inc., priority 2009, published 2012).

molecular target: PDE10 (UniProt Q9Y233); experiment: PDE10 enzyme inhibition, IMAP TR-FRET assay (MPDE10A7 Enzyme Activity and Inhibition); format: biochemical; settings: IC50 class against PDE10; read-out: IC50
In short: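 IMAP TR-FRET read-out of PDE10 hydrolysis of fluorescein-cAMP or -cGMP (60 min, room temperature), after a 30 min compound-enzyme preincubation. Enzyme source was PDE10A or tissue homogenate. Averaged IC50s are reported as five range classes.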

Compound | IC50 [nM]
O=C(c1ccc(Oc2nccnc2-c2cccc3ncccc23)cc1)c1nc2ccccc2[nH]1 [Example 130, (1H-benzo[d]imidazol-2-yl)(4-(3-(quinolin-5-yl)pyrazin-2-yloxy)phenyl)methanone] | 25 to 100
OCCN1CCN(c2nccnc2Oc2ccc(Nc3nc4ccccc4s3)cc2)CC1 [Example 79, 2-(4-(3-(4-(benzo[d]thiazol-2-ylamino)phenoxy)pyrazin-2-yl)piperazin-1-yl)ethanol] | < 25
COc1cccc(-c2nccnc2Oc2ccc(Nc3nc4ccccc4s3)cc2)c1 [Example 150, N-(4-(3-(3-methoxyphenyl)pyrazin-2-yloxy)phenyl)benzo[d]thiazol-2-amine] | 25 to 100
CC(=O)OCC(=O)N1CCC(c2nccnc2Oc2ccc(C(=O)c3nc4ccccc4[nH]3)cc2)CC1 [Example 244, 2-(4-(3-(4-(1H-benzo[d]imidazole-2-carbonyl)phenoxy)pyrazin-2-yl)piperidin-1-yl)-2-oxoethyl acetate] | < 25
O=C(c1ccc(Oc2nccnc2OCCc2ccccn2)cc1)c1nc2ccccc2[nH]1 [Example 177, (1H-benzo[d]imidazol-2-yl)(4-(3-(2-(pyridin-2-yl)ethoxy)pyrazin-2-yloxy)phenyl)methanone] | 25 to 100
COC(=O)c1ccc(-c2nccnc2Oc2ccc(C(=O)c3nc4ccccc4[nH]3)cc2)cc1 [Example 126, methyl 4-(3-(4-(1H-benzo[d]imidazole-2-carbonyl)phenoxy)pyrazin-2-yl)benzoate] | < 25
O=C1C=C(c2nccnc2Oc2ccc(Nc3nc4ccccc4s3)c(F)c2)CCC1 [Example 136, 3-(3-(4-(benzo[d]thiazol-2-ylamino)-3-fluorophenoxy)pyrazin-2-yl)cyclohex-2-enone] | < 25
C[C@]1(O)CC[C@H](c2nccnc2Oc2ccc(C(=O)c3nc4ccccc4[nH]3)cc2)CC1 [Example 197, (1H-benzo[d]imidazol-2-yl)(4-(3-((1R,4R)-4-hydroxy-4-methylcyclohexyl)pyrazin-2-yloxy)phenyl)methanone] | < 25
c1ccc2sc(Nc3ccc(Oc4nccnc4NC4CCCOC4)cc3)nc2c1 (centres unmarked) [Example 58, N-(4-(3-(TETRAHYDRO-2H-PYRAN-3-YLAMINO)PYRAZIN-2-YLOXY)PHENYL)BENZO[D]THIAZOL-2-AMINE] | 25 to 100
c1ccc2sc(Nc3ccc(Oc4nccnc4-c4ccc(N5CCOCC5)cc4)cc3)nc2c1 [Example 139, N-(4-(3-(4-morpholinophenyl)pyrazin-2-yloxy)phenyl)benzo[d]thiazol-2-amine] | 100 to 250
N#Cc1ccc(-c2nccnc2Oc2ccc(Nc3nc4ccccc4s3)cc2)cn1 [Example 142, 5-(3-(4-(benzo[d]thiazol-2-ylamino)phenoxy)pyrazin-2-yl)picolinonitrile] | < 25
O=C(c1ccc(Oc2nccnc2OCC2CC2)cc1)c1nc2ccccc2[nH]1 [Example 163, (1H-benzo[d]imidazol-2-yl)(4-(3-(cyclopropylmethoxy)pyrazin-2-yloxy)phenyl)methanone] | 250 to 1000
OC[C@@H]1CCN(c2nccnc2Oc2ccc(Nc3nc4ccccc4s3)cc2)C1 [Example 85, (R)-(1-(3-(4-(benzo[d]thiazol-2-ylamino)phenoxy)pyrazin-2-yl)pyrrolidin-3-yl)methanol] | < 25
COCC(=O)N1CCC(c2nccnc2Oc2ccc(C(=O)c3nc4ccccc4n3C)cc2)CC1 [Example 243, 2-methoxy-1-(4-(3-(4-(1-methyl-1H-benzo[d]imidazole-2-carbonyl)phenoxy)pyrazin-2-yl)piperidin-1-yl)ethanone] | < 25
O=C(c1ccc(Oc2nccnc2[C@H]2CCC[C@H](O)C2)cc1)c1nc2ccccc2[nH]1 (racemic) [Example 190, (rac)-trans-(1H-benzo[d]imidazol-2-yl)(4-(3-(3-hydroxycyclohexyl)pyrazin-2-yloxy)phenyl)methanone] | < 25
CC(=O)N1CCN(c2nccnc2Oc2ccc(Nc3nc4ccccc4s3)cc2)CC1 [Example 71, 1-(4-(3-(4-(benzo[d]thiazol-2-ylamino)phenoxy)pyrazin-2-yl)piperazin-1-yl)ethanone] | 25 to 100
OCCC1CCN(c2nccnc2Oc2ccc(Nc3nc4ccccc4s3)cc2)CC1 [Example 86, 2-(1-(3-(4-(benzo[d]thiazol-2-ylamino)phenoxy)pyrazin-2-yl)piperidin-4-yl)ethanol] | 25 to 100
O=C(c1ccc(Oc2nccnc2C2(O)CCOCC2)cc1)c1nc2ccccc2[nH]1 [Example 213, (1H-benzo[d]imidazol-2-yl)(4-(3-(4-hydroxytetrahydro-2H-pyran-4-yl)pyrazin-2-yloxy)phenyl)methanone] | < 25
O=S1(=O)CCN(c2nccnc2Oc2ccc(Nc3nc4ccccc4s3)cc2)CC1 [Example 75, N-(4-((3-(1,1-dioxido-4-thio-morpholinyl)-2-pyrazinyl)oxy)-phenyl)-1,3-benzothiazol-2-amine] | 250 to 1000
O=C(c1ccc(Oc2nccnc2OCCCc2cccnc2)cc1)c1nc2ccccc2[nH]1 [Example 178, (1H-benzo[d]imidazol-2-yl)(4-(3-(3-(pyridin-3-yl)propoxy)pyrazin-2-yloxy)phenyl)methanone] | 25 to 100
O=C(c1ccc(Oc2nccnc2OCC2CCOC2)cc1)c1nc2ccccc2[nH]1 (centres unmarked) [Example 171, (1H-benzo[d]imidazol-2-yl)(4-(3-((tetrahydrofuran-3-yl)methoxy)pyrazin-2-yloxy)phenyl)methanone] | 100 to 250
COc1ncccc1-c1nccnc1Oc1ccc(Nc2nc3ccc(F)cc3s2)cc1 [Example 153, 6-fluoro-N-(4-(3-(2-methoxypyridin-3-yl)pyrazin-2-yloxy)phenyl)benzo[d]thiazol-2-amine] | 25 to 100
Fc1ccc2sc(Nc3ccc(Oc4nccnc4C4CCOCC4)cc3)nc2c1 [Example 218, 5-fluoro-N-(4-(3-(tetrahydro-2H-pyran-4-yl)pyrazin-2-yloxy)phenyl)benzo[d]thiazol-2-amine] | < 25

same assay, conditions: PDE10 enzyme inhibition; average IC50 data for each compound; read-out: Average IC50

Compound | IC50 [nM]
O=C(c1ccc(Oc2nccnc2-c2ccnc3ccccc23)cc1)c1nc2ccccc2[nH]1 [drawing 799] | 3.59
O=C(c1ccc(Oc2nccnc2C2(O)CCOCC2)cc1)c1nc2ccccc2[nH]1 [drawing 908] | 2.16
O=C(c1ccc(Oc2nccnc2-c2cccnc2F)cc1)c1nc2ccccc2[nH]1 | 3.53
COc1cccc2nc(Nc3ccc(Oc4nccnc4C4CCOCC4)cc3)[nH]c12 [drawing 941] | 0.186
O=C(c1ccc(Oc2nccnc2C2=CC[C@@H](O)CC2)cc1)c1nc2ccccc2[nH]1 (racemic) | 1.69
CCOC(=O)[C@@H]1CCCN(c2nccnc2Oc2ccc(C(=O)c3nc4ccccc4[nH]3)cc2)C1 (stereo in doubt) | 0.773
COC[C@H](C)NC(=O)c1nccnc1Oc1ccc(C(=O)c2nc3ccccc3[nH]2)cc1 [drawing 802] | 45.4
O[C@@H]1CCC[C@@H](c2nccnc2Oc2ccc(Nc3nc4ccccc4s3)cc2)C1 [drawing 912] | 2.54
c1cncc(-c2nccnc2Oc2ccc(Nc3nc4ccccc4s3)cc2)c1 [drawing 823] | 10.4
COC1CCN(c2nccnc2Oc2ccc(Nc3nc4ccccc4s3)cc2)CC1 [drawing 767] | 37
c1ccc2sc(Nc3ccc(Oc4nccnc4C4CCOCC4)cc3)nc2c1 [drawing 864] | 0.606
COc1cnccc1-c1nccnc1Oc1ccc(C(=O)c2nc3ccccc3[nH]2)cc1 [drawing 960] | 0.489
OCc1ccc(-c2nccnc2Oc2ccc(Nc3nc4ccccc4s3)cc2)cn1 [drawing 804] | 4.12
COCC(=O)N1CCC(c2nccnc2Oc2ccc(C(=O)c3nc4ccccc4n3C)cc2)CC1 [drawing 982] | 0.521
O=C(c1ccc(Oc2nccnc2C(=O)NCCc2ccc(C(F)(F)F)cc2)cc1)c1nc2ccccc2[nH]1 [drawing 807] | 24.6
O=C(c1ccc(Oc2nccnc2N2CCC(CO)CC2)cc1)c1nc2ccccc2[nH]1 | 0.32
O=C(c1ccc(Oc2nccnc2[C@H]2CC[C@H](O)CC2)cc1)c1nc2ccccc2[nH]1 | 0.426
O=C(c1ccc(Oc2nccnc2[C@H]2CC[C@@H](O)CC2)cc1)c1nc2ccccc2[nH]1 [drawing 900] | 1.36
N#C[C@@H]1CCN(c2nccnc2Oc2ccc(C(=O)c3nc4ccccc4[nH]3)cc2)C1 (stereo in doubt) | 1.32
C[C@H]1CN(c2nccnc2Oc2ccc(Nc3nc4ccccc4s3)cc2)CC(=O)N1 [drawing 835] | 17.1
O=C(c1ccc(Oc2nccnc2C(=O)NCCc2ccccc2)cc1)c1nc2ccccc2[nH]1 [drawing 827] | 4.47
N#C[C@@H]1CCN(c2nccnc2Oc2ccc(C(=O)c3nc4ccccc4[nH]3)cc2)C1 [drawing 828] | 1.76
O=C(c1ccc(Oc2nccnc2[C@@H]2CCC[C@H](O)C2)cc1)c1nc2ccccc2[nH]1 (stereo in doubt) | 1.02
COc1ccc(-c2nccnc2Oc2ccc(C(=O)c3nc4ccccc4[nH]3)cc2)c(OC)n1 [drawing 955] | 0.577
OCCN1CCN(c2nccnc2Oc2ccc(Nc3nc4ccccc4s3)cc2)CC1 [drawing 720] | 8.44
CO[C@@H]1CC=C(c2nccnc2Oc2ccc(C(=O)c3nc4ccccc4[nH]3)cc2)CC1 (stereo in doubt) | 4
O=C(c1ccc(Oc2nccnc2-c2ccnc(C(F)(F)F)c2)cc1)c1nc2ccccc2[nH]1 [drawing 753] | 242
O=C(c1ccc(Oc2nccnc2[C@@H]2CCC[C@@H](O)C2)cc1)c1nc2ccccc2[nH]1 | 0.992

same assay, conditions: PDE10 enzyme inhibition; chiral compounds separated from racemic mixtures; read-out: IC50

Compound | IC50 [nM]
C[C@@H](F)C(=O)N1CCC(c2nccnc2Oc2ccc(C(=O)c3nc4ccccc4[nH]3)cc2)CC1 [Example 277, (R)-1-(4-(3-(4-(1H-benzo[d]imidazole-2-carbonyl)phenoxy)pyrazin-2-yl)piperidin-1-yl)-2-fluoropropan-1-one] | < 25
O[C@H]1CCC[C@H](c2nccnc2Oc2ccc(Nc3nc4ccccc4s3)cc2)C1 [Example 275, (1S,3S)-3-(3-(4-(benzo[d]thiazol-2-ylamino)phenoxy)pyrazin-2-yl)cyclohexanol] | < 25
